Reference: article PMC8067766 (International Journal of Molecular Sciences, 2021)
Where a SMILES comes first, the peptide text is derived from it.

Legend:
dorsal skin wounds [1] = experiment: Wound healing in a dorsal skin excision model in mice; assay type: in vivo, BALB/c female mice
From the text: Eight-week-old BALB/c female mice were used for experiments. All experimental procedures were approved by the Local Ethics Committee in Bydgoszcz (Approval No. 49/2016). The mice were anesthetized with inhaled 2–5% isoflurane. The skin on the back was shaved and disinfected. The skin was folded and raised cranially and caudally along the spine. The mouse was then placed in a lateral position, and the folded skin was pierced with a 6.0 mm diameter biopsy punch, resulting in the formation of two excisional, symmetrical wounds on the back of the mouse. Before peptides administration, mice were randomly divided into treatment and control groups comprising six individuals. A total of 10 µL of 1 mg/mL peptide solution suspended in saline or fibrils solution suspended in PBS at the same concentration, was applied to each wound. Control groups received saline only. The wounds were covered with transparent Tegaderm film and an adhesive plaster was wrapped around the mouse torso. During the first week of the experiment, the wounds were treated with the peptide daily for five consecutive days along with replacement of the dressing. During the second week of the experiment, the dressing was replaced every other day with no further stimulation. For fibrils the solution was administered once after wounding and the dressing was replaced every two days. At the beginning of the third week, the dressing was removed. To measure the wound area, a ruler was placed next to the injury site, and the wound was photographed. Wound areas were calculated using ImageJ software.

HaCaT keratinocytes = experiment: XTT proliferation assay, keratinocytes; assay type: cell-based, human; conditions: for increase in proliferation by fibrils compared to control (XTT): fibrillated form, 10 µL of fibrils (50 µg/mL), 48 h, not statistically significant; for stimulation of proliferation (XTT), in words / inhibition of proliferation (XTT), in words: non-fibrillated peptide, 48 and 72 h; for inhibition of proliferation (XTT), in words: up to 25 µg/mL
Protocol: Immortalized human HaCaT [69, 70] keratinocytes (DKFZ, Heidelberg, Germany) and the human dermal fibroblast cell line 46BR.1N (ECACC, Sigma Aldrich, St. Louis, MO, USA) were used in the study. Cells were routinely grown in culture flasks (growth surface area 25 cm^2) in Dulbecco’s modified Eagle medium (DMEM, Sigma Aldrich, St. Louis, MO, USA), with 4500 mg/L of glucose, 584 mg/L of L-glutamine, sodium pyruvate, and sodium bicarbonate, supplemented with 10% FBS and 100 units/mL of penicillin and 100 μg/mL of streptomycin (Sigma Aldrich, St. Louis, MO, USA), under a humidified atmosphere with 5% CO2 at 37 °C. Medium was changed every 2–3 days.
Lactate dehydrogenase (LDH) activity in cell culture supernatants (Takara, Japan, cat. No. MK401) was measured to determine the cytotoxicity of the tested compounds, and the XTT assay was used to evaluate their effect on cell proliferation. Both tests were performed as previously described according to manufacturers’ instructions. Briefly, cells were seeded into 96-well plates, at a density of 5000 cells per well, in DMEM supplemented with 10% FBS. After 24 h the medium was exchanged for serum-free DMEM containing appropriate concentrations of the tested compounds. Supernatants for LDH analysis were collected after 48 h of incubation. The XTT assay was performed after 48 and 72 h of incubation.
For the analysis of the effect of the peptide fibrils on skin cells, the experiment was performed as described, but the cells were stimulated with 10 µL of the fibrils (50 µg/mL) and incubated for 48 h, when the LDH and XTT assay were then performed.

[2] = Peptide stability in human plasma (TCA assay); assay type: in vitro ADME; conditions: human plasma (EDTA), 37 °C, 300 rpm, TCA 3% precipitation, RP-HPLC UV 223 nm, peak area relative to 0 min, at least triplicates, read-out: peptide loss in human plasma relative to the initial concentration
Protocol: Peptide stability tests were performed according to a TCA stability assay based on the method used by Nguyen et al.. Peptides were dissolved in water, mixed with human plasma* to a final concentration of 1.0 mg/mL, and incubated at 37 °C with agitation (300 rpm, Thermomixer, Eppendorf AG, Hamburg, Germany). After 0, 1, 2, 3, 6 and 24 h, 80 μL of the solution was taken and mixed with 15% TCA to obtain a final concentration of 3% (v/v). The samples were incubated in ice for 10 min and centrifuged for 10 min (12,000 rpm, Microfuge 16, Beckman Coulter, Brea, CA, USA). Supernatants were analyzed by RP-HPLC on column using a linear gradient of acetonitrile (5–100% over 15 min) with detection at 223 nm. Peptides were quantified by their peak areas relative to the initial peak areas (0 min). All stability tests were performed at least in triplicates. As control samples peptides dissolved only in water under the same conditions were used. To additionally assess the changes in the incubated samples (peptide degradation) mass spectrometry analysis was used. LC-MS experiments were performed using ESI-IT-TOF (Shimadzu, Kyoto, Japan).
* Blood was collected from healthy anonymous donors and EDTA was then used as an anticoagulant. The procedure was approved by the Independent Bioethics Commission for Research of the Medical University of Gdańsk (NKBBN/387/2014).

dorsal skin wounds [3] = experiment: Histological analysis of healed skin (Masson's trichrome); assay type: in vivo, BALB/c female mice; conditions: skin sampled day 18 after injury
Protocol: Mice were euthanized on day 18 after the injury. Skin from their backs was sampled and stored in formalin. Samples were then embedded in paraffin, cut into 5 µm sections and stained with Masson’s trichrome staining (light green for control and FC-GHK samples and aniline blue for the FC peptide and both fibrillated peptides). Stained sections were evaluated using a light microscope.

[4] = Transmission electron microscopy of fibrils; assay type: physicochemical; conditions: 1.0 mg/mL in PBS pH 7.4, TEM, uranyl acetate stain
Protocol: All peptides were dissolved in Eppendorf Low Retention Tubes in 1.0 mL of PBS pH 7.4. The concentration of the solutions of peptides was 1.0 mg/mL. The peptides were incubated at 37 °C with constant orbital shaking. Aliquots for the evaluation of the fibrillization process were taken before incubation and after 1, 2, 3, 6, 14, and 21 days or only after 7 days, depending on the experiments.
Peptide samples (5 µL) were applied on a glow-discharged carbon-coated copper grid (400 mesh). After 1 min of adsorption, excess liquid was removed using filter paper, and the samples were stained with 2% (v/v) aqueous uranyl acetate. The samples were examined with a TECNAI SPIRIT BIO TWIN FEI (FEI Company, Hillsboro, OR, USA) at 120 kV, with nominal magnifications between 11,500 and 39,000. The assay was performed for samples before (after dissolution) and after 3 days of incubation.

[5] = non-fibrillated peptide, 1 mg/mL in saline, five daily applications

Row | Compound | wound closure rate compared to control (dorsal skin wounds [1]; fibrillated peptide, 10 µL of 1 mg/mL in PBS per wound, administered once, n = 16 wounds) | wound closure and scars of FC-GHK compared with FC and control (dorsal skin wounds [1]; [5]) | wound epithelialization compared with the control (dorsal skin wounds [1]; [5]) | wound state on day 14 post-injury (dorsal skin wounds [1]; [5]) | wound closure compared to the control group (dorsal skin wounds [1]; non-fibrillated peptide, 10 µL of 1 mg/mL in saline per wound, five daily applications, n = 12 wounds) | increase in proliferation by fibrils compared to control (XTT) (HaCaT keratinocytes) | stimulation of proliferation (XTT), in words (HaCaT keratinocytes) | inhibition of proliferation (XTT), in words (HaCaT keratinocytes) | metabolised at 24 h, 1 mg/mL [2] | muscle cell growth in wound area (histology) (dorsal skin wounds [3]; fibrillated peptide) | muscle cell layer in restored tissue (histology) (dorsal skin wounds [3]; non-fibrillated peptide) | fibril thickness (TEM) [4]
1 | CC[C@H](C)[C@H](NC(=O)CNC(=O)[C@H](C)NC(=O)[C@H](CCC(N)=O)NC(=O)CNC(=O)CNC(=O)CNC(=O)[C@@H](NC(=O)[C@@H]1CCCN1C(=O)[C@H](C)NC(=O)[C@H](C)NC(=O)CNC(=O)CNC(=O)CNC(=O)[C@H](CCCCN)NC(=O)[C@H](Cc1c[nH]cn1)NC(=O)CNC(C)=O)C(C)C)C(=O)N[C@H](C(=O)N[C@H](C(N)=O)C(C)C)C(C)C [FC-GHK] (Ac-GHKGGGAAPVGGGQAGIVV-NH2) | the difference in wound closure rate could be observed on day 4 post-injury without statistical significance | faster wound closure than for the FC peptide and significantly smaller scars compared to the control group | increased epithelialization on the second day | closed entirely | significantly and consistently accelerated from day 2 till day 14 | about 10% | stimulated proliferation of both tested cell lines at concentrations of 0.01–10 µg/L | slight inhibition of the proliferation of skin cells after 72 h stimulation | 20% | No such cell growth was present | modest reconstruction of the muscle cell layer | 
2 | CC[C@H](C)[C@H](NC(=O)CNC(=O)[C@H](C)NC(=O)[C@H](CCC(N)=O)NC(=O)CNC(=O)CNC(=O)CNC(=O)[C@@H](NC(=O)[C@@H]1CCCN1C(=O)[C@H](C)NC(=O)[C@H](C)NC(=O)CNC(=O)CNC(=O)CNC(=O)[C@H](CCCCN)NC(=O)[C@H](Cc1c[nH]cn1)NC(=O)CNC(=O)[C@H](CCCCN)NC(C)=O)C(C)C)C(=O)N[C@H](C(=O)N[C@H](C(N)=O)C(C)C)C(C)C [FC-KGHK] (Ac-KGHKGGGAAPVGGGQAGIVV-NH2) |  |  |  |  |  | about 10% | most potent stimulation was observed at concentrations of 1.0 µg/mL after 48 h and 0.1 µg/mL after 72 h incubation | did not inhibit the proliferation of skin cells | 20% |  |  | 10–12 nm
